Assay results published in US20210261642A1, “SOLUBILITY OF GLP-1 PEPTIDE” (Novo Nordisk A/S, priority 2017, published 2021).

Assay: Assay (I): Determination of Solubility (96-well plate, pH 3.0-11.0, organic solvent 0-70% w/w, UV absorption at 280 nm)
Assay type: physicochemical
Details: Method 2 (precipitation), 5° C.
Method: Assay (I): Determination of Solubility
96-Well Plate Preparation
96-well plates containing target peptide in a solid form were prepared in one of two ways:
Method 1 (evaporation): Addition of 100 μl stock solution of said peptide at a concentration of 4-6 mg/ml to each well of a 96-well half area plate (150 μl well size). Subsequently the solvent was evaporated by applying a vacuum until the solvent was completely removed.
Method 2 (precipitation): Addition of a certain volume of a stock solution of said peptide containing to each well of a 96-well half area plate followed by the addition of a certain volume of concentrated phosphoric acid to obtain a pH of 4.6 followed by addition of a certain volume of ethanol resulting in a final ethanol concentration of 20% v/v. Subsequently the plate was stored at 4° C. for 1 h and then centrifuged at 4,000 rpm for 20 min. Finally the supernatant was removed. The concentration of the stock solution was chosen in a way that the final amount of peptide after supernatant removal was >0.4 mg per well.
In both cases the stock solution was prepared by adding de-ionized water to a certain amount of powder of said peptide followed by a stepwise addition of small amounts of a concentrated sodium hydroxide solution until said peptide was completely in solution.
To determine solubility of a target peptide at different pH and organic solvent concentrations, two different buffer systems were used in independent experiments to cover the whole range from pH 3.0 to pH 11.0. Buffer system 1 covers pH 3.0-7.5 and buffer system 2 covers pH 7.5-11.0. For each buffer system 96 different solvent compositions were premixed in the following way: • 1. A low pH buffer (adjusted to either pH 3.0 or pH 7.5) and a high pH buffer (adjusted to either pH 7.5 or pH 11.0) were mixed at 8 different ratios to obtain values between pH 3.0 and pH 7.5 or pH 7.5 and pH 11.0, respectively. The total volume after mixing was 300 μl. • 2. 12 different amounts of organic solvent were then added to these buffers to obtain organic solvent (e.g. ethanol) concentrations between 0 and 70% w/w. • 3. Water was then added to obtain a total weight of 1.0 g of solvent in each well.
After preparing the 96 different solvent systems, 100 μl of each system was transferred to the 96-well plate containing the solid form of the target peptide (prepared as described in the section “96-well plate preparation”). The plate was then stored at a given temperature (between 5° C. and 70° C.) for a given time on a rotating shaker set to 400 rpm. At regular time intervals the plate was centrifuged (4,000 rpm for 10 min) and a 10 μl sample was taken from each well. The samples were then analysed by UV absorption at 280 nm for peptide quantification. Peptide concentration results are given as UV absorption at 280 nm of the sample subtracted UV absorption at 280 nm of a well comprising 10 μl water.
The buffers used were as follows: • Buffer system 1 (for the pH range from pH 3.0-7.5)
• Buffer system 2 (for the pH ranae from pH 7.5-11.0)
Solubility of liraglutide was determined using Assay (I) described herein. Liraglutide was prepared using Method 1 (evaporation) or Method 2 (precipitation) as described in subsection “96-well plate preparation”.

CCCCCCCCCCCCCCCC(=O)N[C@@H](CCC(=O)NCCCC[C@H](NC(=O)[C@H](C)NC(=O)[C@H](C)NC(=O)[C@H](CCC(N)=O)NC(=O)CNC(=O)[C@H](CCC(=O)O)NC(=O)[C@H](CC(C)C)NC(=O)[C@H](Cc1ccc(O)cc1)NC(=O)[C@H](CO)NC(=O)[C@H](CO)NC(=O)[C@@H](NC(=O)[C@H](CC(=O)O)NC(=O)[C@H](CO)NC(=O)[C@@H](NC(=O)[C@H](Cc1ccccc1)NC(=O)[C@@H](NC(=O)CNC(=O)[C@H](CCC(=O)O)NC(=O)[C@H](C)NC(=O)[C@@H](N)Cc1cnc[nH]1)[C@@H](C)O)[C@@H](C)O)C(C)C)C(=O)N[C@@H](CCC(=O)O)C(=O)N[C@@H](Cc1ccccc1)C(=O)N[C@H](C(=O)N[C@@H](C)C(=O)N[C@@H](Cc1c[nH]c2ccccc12)C(=O)N[C@@H](CC(C)C)C(=O)N[C@H](C(=O)N[C@@H](CCCNC(=N)N)C(=O)NCC(=O)N[C@@H](CCCNC(=N)N)C(=O)NCC(=O)O)C(C)C)[C@@H](C)CC)C(=O)O [liraglutide, Arg34,Lys26-(N-epsilon-(gamma-L-glutamyl(N-alfa-hexadecanoyl)))-GLP-1(7-37)]
GLP-1 peptide concentration (MeCN 57.3% w/w, pH 9.50, 5 min, before removal of outliers): 0.5 mg/mL
GLP-1 peptide concentration (MeCN 57.3% w/w, pH 9.50, 180 min, after removal of outliers): >4.0 mg/mL
GLP-1 peptide concentration (MeCN 57.3% w/w, pH 9.50, 180 min, before removal of outliers): >4.0 mg/mL
GLP-1 peptide concentration (MeCN 57.3% w/w, pH 9.50, 24 h, after removal of outliers): 2.5 mg/mL
GLP-1 peptide concentration (MeCN 57.3% w/w, pH 9.50, 24 h, before removal of outliers): 2.5 mg/mL
GLP-1 peptide concentration (MeCN 57.3% w/w, pH 10.00, 5 min, after removal of outliers): 0.4 mg/mL
GLP-1 peptide concentration (MeCN 57.3% w/w, pH 10.00, 5 min, before removal of outliers): 0.4 mg/mL
GLP-1 peptide concentration (MeCN 57.3% w/w, pH 10.00, 180 min, after removal of outliers): >4.0 mg/mL
GLP-1 peptide concentration (MeCN 57.3% w/w, pH 10.00, 180 min, before removal of outliers): >4.0 mg/mL
GLP-1 peptide concentration (MeCN 57.3% w/w, pH 10.00, 24 h, after removal of outliers): 1.1 mg/mL
GLP-1 peptide concentration (MeCN 57.3% w/w, pH 10.00, 24 h, before removal of outliers): 1.1 mg/mL
GLP-1 peptide concentration (MeCN 57.3% w/w, pH 10.50, 5 min, after removal of outliers): 0.5 mg/mL
GLP-1 peptide concentration (MeCN 57.3% w/w, pH 10.50, 5 min, before removal of outliers): 0.5 mg/mL
GLP-1 peptide concentration (MeCN 57.3% w/w, pH 10.50, 180 min, after removal of outliers): >4.0 mg/mL
GLP-1 peptide concentration (MeCN 57.3% w/w, pH 10.50, 180 min, before removal of outliers): >4.0 mg/mL
GLP-1 peptide concentration (MeCN 57.3% w/w, pH 10.50, 24 h, after removal of outliers): 1.7 mg/mL
GLP-1 peptide concentration (MeCN 57.3% w/w, pH 10.50, 24 h, before removal of outliers): 1.7 mg/mL
GLP-1 peptide concentration (MeCN 57.3% w/w, pH 11.00, 5 min, after removal of outliers): 0.5 mg/mL
GLP-1 peptide concentration (MeCN 57.3% w/w, pH 11.00, 5 min, before removal of outliers): 0.5 mg/mL
GLP-1 peptide concentration (MeCN 57.3% w/w, pH 11.00, 180 min, after removal of outliers): >4.0 mg/mL
GLP-1 peptide concentration (MeCN 57.3% w/w, pH 11.00, 180 min, before removal of outliers): >4.0 mg/mL
GLP-1 peptide concentration (MeCN 57.3% w/w, pH 11.00, 24 h, after removal of outliers): 3.6 mg/mL
GLP-1 peptide concentration (MeCN 57.3% w/w, pH 11.00, 24 h, before removal of outliers): 3.6 mg/mL
GLP-1 peptide concentration (MeCN 63.6% w/w, pH 7.50, 5 min, before removal of outliers): 0.4 mg/mL
GLP-1 peptide concentration (MeCN 63.6% w/w, pH 7.50, 180 min, before removal of outliers): 1.0 mg/mL
GLP-1 peptide concentration (MeCN 63.6% w/w, pH 7.50, 24 h, before removal of outliers): 2.4 mg/mL
GLP-1 peptide concentration (MeCN 63.6% w/w, pH 8.00, 5 min, after removal of outliers): 0.5 mg/mL
GLP-1 peptide concentration (MeCN 63.6% w/w, pH 8.00, 5 min, before removal of outliers): 0.5 mg/mL
GLP-1 peptide concentration (MeCN 63.6% w/w, pH 8.00, 180 min, after removal of outliers): 1.2 mg/mL
GLP-1 peptide concentration (MeCN 63.6% w/w, pH 8.00, 180 min, before removal of outliers): 1.2 mg/mL
GLP-1 peptide concentration (MeCN 63.6% w/w, pH 8.00, 24 h, after removal of outliers): 3.2 mg/mL
GLP-1 peptide concentration (MeCN 63.6% w/w, pH 8.00, 24 h, before removal of outliers): 3.2 mg/mL
GLP-1 peptide concentration (MeCN 63.6% w/w, pH 8.50, 5 min, after removal of outliers): 0.5 mg/mL
GLP-1 peptide concentration (MeCN 63.6% w/w, pH 8.50, 5 min, before removal of outliers): 0.5 mg/mL
GLP-1 peptide concentration (MeCN 63.6% w/w, pH 8.50, 180 min, after removal of outliers): 3.1 mg/mL
GLP-1 peptide concentration (MeCN 63.6% w/w, pH 8.50, 180 min, before removal of outliers): 3.1 mg/mL
GLP-1 peptide concentration (MeCN 63.6% w/w, pH 8.50, 24 h, after removal of outliers): 3.1 mg/mL
GLP-1 peptide concentration (MeCN 63.6% w/w, pH 8.50, 24 h, before removal of outliers): 3.1 mg/mL
GLP-1 peptide concentration (MeCN 63.6% w/w, pH 9.00, 5 min, after removal of outliers): 0.5 mg/mL
GLP-1 peptide concentration (MeCN 63.6% w/w, pH 9.00, 5 min, before removal of outliers): 0.5 mg/mL
GLP-1 peptide concentration (MeCN 63.6% w/w, pH 9.00, 180 min, after removal of outliers): 1.7 mg/mL
GLP-1 peptide concentration (MeCN 63.6% w/w, pH 9.00, 180 min, before removal of outliers): 1.7 mg/mL
GLP-1 peptide concentration (MeCN 63.6% w/w, pH 9.00, 24 h, after removal of outliers): >4.0 mg/mL
GLP-1 peptide concentration (MeCN 63.6% w/w, pH 9.00, 24 h, before removal of outliers): >4.0 mg/mL
GLP-1 peptide concentration (MeCN 63.6% w/w, pH 9.50, 5 min, after removal of outliers): 0.6 mg/mL
GLP-1 peptide concentration (MeCN 63.6% w/w, pH 9.50, 5 min, before removal of outliers): 0.6 mg/mL
GLP-1 peptide concentration (MeCN 63.6% w/w, pH 9.50, 180 min, after removal of outliers): 2.9 mg/mL
GLP-1 peptide concentration (MeCN 63.6% w/w, pH 9.50, 180 min, before removal of outliers): 2.9 mg/mL
GLP-1 peptide concentration (MeCN 63.6% w/w, pH 9.50, 24 h, after removal of outliers): 1.2 mg/mL
GLP-1 peptide concentration (MeCN 63.6% w/w, pH 9.50, 24 h, before removal of outliers): 1.2 mg/mL
GLP-1 peptide concentration (MeCN 63.6% w/w, pH 10.00, 5 min, after removal of outliers): 0.4 mg/mL
